Results taken from patent US6812034B2, “Fetuin-MGP-mineral complex in serum assayed to determine calcification risk” (The Regents of the University of California, priority 2000, dated 2004).
“Also recorded” adds a separate entry of the source.

How the values were obtained:
Type in all cases: in vivo, rat
[1] = tested on: aorta calcification in rats treated with vitamin D plus warfarin; assay: von Kossa staining for calcification in rats treated with vitamin D plus warfarin; conditions: for Histology Score Observer #1 x ± S.D. / Histology Score Observer #2 x ± S.D.: 84 h; for dose that completely eliminated von Kossa staining for mineral in the abdominal aorta: 84 h after first vitamin D
Protocol: (§1) For measurement of mineral accumulation in arteries, each tissue was removed within 30 minutes of death and immediately frozen. Tissues were subsequently washed extensively with buffer and extracted with 1 ml of 10% formic acid for 24 h at room temperature, as described. Calcium levels in serum were determined colorimetrically using cresolphthalein complexone (Sigma) and phosphate levels in serum and in acid tissue extracts were determined calorimetrically as described (Zhu et al. (1994) Cardiology, 85: 370-377). Tissue sectioning and staining were carried out by Biomedical Testing Services, Inc., (San Diego, Calif.).
Male Sprague Dawley rats were fed ad libitum with rodent diet 5001 (Purina Mills Inc., St. Louis, Mo.), a diet that is 0.67% phosphorus and 0.95% calcium by weight. This diet contains 500 μg per kg of phylloquinone and has no added menadione. In all experiments, animals were killed by exsanguination while under metofane anesthetic, and selected tissues were removed immediately and fixed in 10% buffered formalin or frozen at −20° C. for later studies. All animal experiments were approved by the UCSD animal subjects committee.

[2] = tested on: vitamin D-induced artery calcification; assay: mineral phosphate accumulation in acid demineralization extracts of thoracic aorta and carotid arteries, vitamin D plus warfarin; conditions: for Artery Calcification Relative potency: relative to etidronate = 1
Protocol: Tissues were subsequently washed extensively with buffer and extracted with 1 ml of 10% formic acid for 24 h at room temperature, as described. Calcium levels in serum were determined colorimetrically using cresolphthalein complexone (Sigma) and phosphate levels in serum and in acid tissue extracts were determined calorimetrically as described (Zhu et al. (1994) Cardiology, 85: 370-377). Tissue sectioning and staining were carried out by Biomedical Testing Services, Inc., (San Diego, Calif.). The effect of bisphosphonates on artery calcification was first examined in rats in which artery calcification was induced by treatment with warfarin plus high doses of vitamin D. […] All animals were killed by exsanguination at 96 h. […] All animals were killed by exsanguination at 96 h after the first vitamin D dose. […] All animals were killed by exsanguination 96 h after the first vitamin D injection.

[3] = serum levels of calcium and phosphate in rats treated with vitamin D plus warfarin; conditions: 84 h; for reduction of serum phosphate: two highest doses
Protocol: as §1, with “Calif.). […]” for “Calif.).”

[4] = tested on: warfarin-induced artery calcification; assay: artery calcification in rats treated with warfarin for 2 or 4 weeks; conditions: both carotid arteries
Protocol: Tissues were subsequently washed extensively with buffer and extracted with 1 ml of 10% formic acid for 24 h at room temperature, as described. Calcium levels in serum were determined colorimetrically using cresolphthalein complexone (Sigma) and phosphate levels in serum and in acid tissue extracts were determined calorimetrically as described (Zhu et al. (1994) Cardiology, 85: 370-377). Tissue sectioning and staining were carried out by Biomedical Testing Services, Inc., (San Diego, Calif.). The effect of bisphosphonates on artery calcification was also examined in rats treated with warfarin alone using procedures which have been described elsewhere (Price et al. (1998) Arterioscler. Thromb. Vasc. Biol. 18: 1400-1407).

[5] = serum levels of calcium, phosphate, MGP and BGP after subcutaneous bisphosphonate
Protocol: Rats were fed rodent diet 5001 (Purina Mills Inc., St. […] Etidronate was dissolved with 0.15 M NaCl, titrated to pH 7.4 with dilute NaOH, and administered subcutaneously to forty-day-old male rats. Control animals received injections of 0.15 M NaCl only. […] At the times indicated in FIG. 1, each rat was anesthetized with metofane and a 400 μl sample of blood was withdrawn from the jugular vein. Blood samples were allowed to clot for 15 min at room temperature and serum was obtained after centrifugation in a clinical centrifuge and then frozen rapidly on dry ice and stored at -70° C. until later analysis. The same procedure was followed for the second time course experiment (FIG. 10), with the difference that the etidronate dose was increased to 32 mg per 100 g body weight. […] Two hours later, all rats were injected with etidronate at a dose of 8 mg/100 g (t=0), and 400 μl of blood were removed from each animal at the indicated times for biochemical analyses. […] In neither control group could we detect a significant change in serum levels of calcium, phosphate, or MGP at any time point. […] Rice et al. (1994) J. Bone Min. Res. 9: 567-576). Calcium levels in serum and other samples were determined colorimetrically using cresolphthalein complexone (Sigma) and phosphate levels in serum, effluent fractions, and other samples were determined calorimetrically as described (Chen et al. (1956) Anal. Chem. 28(11): 1756-1758). For determination of ionic calcium, freshly obtained blood samples were immediately placed into a 2.5 ml gold top vacutainer tube to avoid out gassing of CO2 and the associated shift in pH. […] Electrophoresis was carried out using 4 to 20% polyacrylamide gels (Novex, Inc., San Diego, Calif.) run in Tris-glycine buffer containing SDS. Protein sequencing was carried out on bands transferred to PVDF membranes using a Procise 494 Sequencer (ABI division, PE Biosystems, Foster City, Calif.).

[6] = weight, tibia length and serum calcium and phosphate in warfarin-treated rats; conditions: for mg Ca dl serum / mg P dl serum: 4 weeks
From the text: This procedure induces artery calcification within 2 weeks without the presence of hypercalcemia.

[7] = Sephacryl S300 gel filtration of serum; conditions: serum 6 h after etidronate, concurrent warfarin
Protocol: The serum mineral complex was characterized by gel filtration using 25 ml columns of Sephacryl S-300 HR which were prepared in disposable plastic pipets and were equilibrated with 20 mM HEPES pH 7.4, 0.15 M NaCl and 10 mM CaCl2 at room temperature. Serum was obtained from rats 6 h after administration of etidronate at a dose of 8 mg/100 g, and 1 ml aliquots were immediately applied to the Sephacryl column. Fractions of 0.5 ml were then collected and analyzed to determine the level of phosphate and MGP (see below).

[8] = 0.00036 mg P/kg/day sc, score 0-5 (5 most calcified)
[9] = 0.0018 mg P/kg/day sc, score 0-5
[10] = 0.009 mg P/kg/day sc, score 0-5
[11] = 0.045 mg P/kg/day sc, score 0-5
[12] = 0.0004 mg P/kg/day sc, score 0-5
[13] = 0.002 mg P/kg/day sc, score 0-5
[14] = 0.010 mg P/kg/day sc, score 0-5
[15] = 0.050 mg P/kg/day sc, score 0-5
[16] = 0.025 mg P/kg/day plus warfarin
[17] = 15.4 mg warfarin per 100 g 2 h before 8 mg/100 g etidronate

CCCCCN(C)CCC(O)(P(=O)(O)O)P(=O)(O)O [Ibandronate, (1-hydroxy-3-(methylpentylamino)propylidene)bis-phosphonate]
Histology Score Observer #1 x ± S.D. [1, 8]: 1.0 ± 0.8 | Histology Score Observer #2 x ± S.D. [1, 8]: 1.0 ± 0.8 | Histology Score Observer #1 x ± S.D. [1, 9]: 0.0 ± 0.0 | Histology Score Observer #2 x ± S.D. [1, 9]: 0.0 ± 0.0 | Histology Score Observer #1 x ± S.D. [1, 10]: 0.0 ± 0.0 | Histology Score Observer #2 x ± S.D. [1, 10]: 0.0 ± 0.0 | Histology Score Observer #1 x ± S.D. [1, 11]: 0.0 ± 0.0 | Histology Score Observer #2 x ± S.D. [1, 11]: 0.0 ± 0.0 | dose that completely eliminated von Kossa staining for mineral in the abdominal aorta [1]: ≥ 0.0018 mg P/kg/day | dose required to reduce the extent of mineralization by half in the thoracic aorta ([2]; 84 h, FIG. 3): 0.0002 mg P/kg/day | dose required to reduce the extent of mineralization by half in the carotid artery ([2]; 84 h, FIG. 4): 0.00018 mg P/kg/day | Artery Calcification Dose for 50% inhibition ([2]; daily subcutaneous dose, vitamin D-induced artery calcification, male rats initially 200 g): 0.00019 mg P/kg/day | subcutaneous dose required for 50% inhibition of artery calcification ([2]; rat, FIGS. 3 and 4): 0.2 μg P/kg/day | Artery Calcification Relative potency [2]: 10500 | Artery Calcification Relative potency ([2]; listed as ibandronate): 10,500 | Serum Ca ([3]; 0.00036 mg P/kg/day): 13.8 ± 0.6 mg/dL | Serum P ([3]; 0.00036 mg P/kg/day): 9.9 ± 0.5 mg/dL | Serum Ca ([3]; 0.0018 mg P/kg/day): 15.5 ± 0.9 mg/dL | Serum P ([3]; 0.0018 mg P/kg/day): 10.3 ± 0.6 mg/dL | Serum Ca ([3]; 0.009 mg P/kg/day): 14.9 ± 0.6 mg/dL | Serum P ([3]; 0.009 mg P/kg/day): 10.4 ± 0.7 mg/dL | Serum Ca ([3]; 0.045 mg P/kg/day): 15.4 ± 0.3 mg/dL | Serum P ([3]; 0.045 mg P/kg/day): 9.9 ± 0.4 mg/dL | reduction of serum phosphate [3]: ~11%

NCCCC(O)(P(=O)(O)O)P(=O)(O)O [Alendronate, (4-amino-1-hydroxybutylidene)bis-phosphonate]
Histology Score Observer #1 x ± S.D. [1, 12]: 2.8 ± 1.0 | Histology Score Observer #2 x ± S.D. [1, 12]: 3.3 ± 1.3 | Histology Score Observer #1 x ± S.D. [1, 13]: 2.5 ± 0.6 | Histology Score Observer #2 x ± S.D. [1, 13]: 2.0 ± 0.8 | Histology Score Observer #1 x ± S.D. [1, 14]: 2.0 ± 1.8 | Histology Score Observer #2 x ± S.D. [1, 14]: 2.5 ± 1.3 | Histology Score Observer #1 x ± S.D. [1, 15]: 0.8 ± 0.5 | Histology Score Observer #2 x ± S.D. [1, 15]: 0.4 ± 0.5 | Histology Score Observer #1 x ± S.D. ([1]; 0.25 mg P/kg/day sc, score 0-5): 0.0 ± 0.0 | Histology Score Observer #2 x ± S.D. ([1]; 0.25 mg P/kg/day sc, score 0-5): 0.0 ± 0.0 | dose that completely eliminated von Kossa staining for mineral in the abdominal aorta [1]: 0.25 mg P/kg/day | nmol PO4 Carotid [4, 16]: 374.0 ± 217.4 nmol | nmol PO4 Carotid ([4]; 0.25 mg P/kg/day plus warfarin): 63.7 ± 43.1 nmol | effect on serum calcium, phosphate and MGP levels ([5]; 4 mg/100 g dose, 1, 2, 6, 12 and 24 h, data not shown): no effect | Serum Ca ([3]; 0.0004 mg P/kg/day): 13.3 ± 0.7 mg/dL | Serum P ([3]; 0.0004 mg P/kg/day): 10.8 ± 1.2 mg/dL | Serum P ([3]; 0.002 mg P/kg/day): 10.2 ± 0.6 mg/dL | Serum Ca ([3]; 0.01 mg P/kg/day): 15.9 ± 0.4 mg/dL | Serum P ([3]; 0.01 mg P/kg/day): 10.0 ± 0.9 mg/dL | Serum P ([3]; 0.05 mg P/kg/day): 9.9 ± 0.5 mg/dL | Serum P ([3]; 0.25 mg P/kg/day): 9.5 ± 0.7 mg/dL | reduction of serum phosphate [3]: about 16% | mg Ca dl serum [6, 16]: 10.0 ± 0.1 mg/dL | mg P dl serum [6, 16]: 10.0 ± 0.1 mg/dL | mg Ca dl serum ([6]; 0.25 mg P/kg/day plus warfarin): 10.8 ± 0.1 mg/dL | mg P dl serum ([6]; 0.25 mg P/kg/day plus warfarin): 10.9 ± 0.7 mg/dL | effect on bone growth or weight gain ([6]; 0.025 and 0.25 mg P/kg/day, warfarin 4 weeks): without affecting bone growth or weight gain

CC(=O)CC(c1ccccc1)c1c(O)c2ccccc2oc1=O (centres unmarked) [warfarin]
MGP levels in the high molecular weight position, of the level in vitamin K-replete, etidronate treated rats [7]: 5% | phosphate levels in the high molecular weight, excluded volume position vs vitamin K-replete, etidronate treated rats [7]: comparable | effect on the increase in serum MGP following etidronate [5, 17]: prevents the increase in serum MGP; also recorded: blocked the increase in serum MGP | effect on the time course of the elevation in serum calcium and phosphate following etidronate [5, 17]: did not affect | effect on serum levels of MGP ([5]; animals which did not receive etidronate): no effect
